± gives the expanded uncertainty stated by the source.

For the data set the following is noted: Liquid, Closed cell (Static) method.

For the molecule `F/C=C\C(F)(F)F` [(Z)-1,3,3,3-tetrafluoro-1-propene], the “vapor or sublimation pressure” value (353.17 K) was determined as 858.3 ± 1.4 kPa, the “vapor or sublimation pressure” value (373.14 K) is 1347.5 ± 2.1 kPa, the “vapor or sublimation pressure” value (393.12 K) is given as 2023.7 ± 3.2 kPa and the “vapor or sublimation pressure” value (413.14 K) amounted to 2940.4 ± 4.6 kPa.

For the origin of these results see the NIST ThermoML archive (doi:10.1021/acs.jced.7b00263).
